Assay results from patent US5968933A, “DNA-targeted alkylating agents” (Auckland Division Cancer Society of New Zealand Inc., priority 1994, dated 1999).
“Also recorded” adds a separate entry of the source. Where two headings read alike, the source gives them in different places.

How the values were obtained:
linearized pSV2gpt DNA = assay: DNA crosslinking assay (agarose gel electrophoresis of linearized plasmid); assay type: biochemical; settings: 2 h at 30° C., TE-80 buffer pH 8
Experimental: The ability of representative compounds of the invention to bind to and cross-link DNA was examined. This was carried out by agarose gel electrophoresis of plasmid DNA using linearized pSV2gpt DNA (Tindall, K. R. and Stankowski, L. F.; Mutation Research, 1989 220 241-245) and the method reported by Valu et al, 1990, op.cit. Briefly, linearized pSV2gpt DNA (1 μL of a 1 mg/mL solution) was incubated with drug in TE-80 buffer (10 mM Tris.HCl, 1 mM EDTA at pH 8), shielded from ambient light, for 2 h at 30° C., then denatured by the addition of […] of 1% sodium dodecyl sulfate and 10 μL of 50 mM methylmercury hydroxide and incubated for a further 30 min at 20° C. in the dark. Renaturation of drug-treated DNA samples was carried out by incubation with 2.5 μL of 2-mercaptoethanol for 1 h. Samples were prepared for electrophoresis by the addition of 0.1 mg/mL bromophenol blue, 0.5 μg/mL ethidium bromide and 5 μL of 40% sucrose. Electrophoresis was carried out at 120V in 89 mM tris/borate buffer at pH 8 containing 2 mM EDTA and 0.5 μg/mL ethidium bromide. DNA was visualized using 302 nm trans-illumination, and was photographed using Polaroid type 55 film and a Wratten 3A filter.
After drug treatment, DNA is denatured to the single stranded form, which runs as a lower band in the gels (see lanes 1 and 2 in FIG. 1). Cross-linking by the drugs is evidenced by the appearance of increasing amounts of renatured, double stranded DNA, as shown by the upper band in the gels, corresponding to the band for untreated DNA seen in lane 1.

calf thymus DNA [1] = assay: Rate of alkylation of calf thymus DNA by increase in DNA-bound fluorescence; assay type: biochemical; parameters: unit not given here
P388 cells = assay: Growth inhibition in vitro, P388 leukaemia; assay type: cell-based, murine; settings: P388 cells, 72 h, MTT, read-out: IC50
Experimental: (§1) Representative examples of compounds of the invention were tested for biological activity against tumors. Compounds 1 to 6 and 14 to 21, prepared as described above, were tested for their ability to inhibit growth in vitro of cells of the wild-type murine leukaemia cell line P388, and the cell line AA8 which is derived from Chinese hamster ovary cells. For each compound, the IC50, ie. the concentration of compound which inhibited cell growth in treated cultures to 50% of that of controls, was determined, using means of three determinations. In addition, a hypersensitivity factor was determined by comparing activity of the compounds against AA8 cells to activity against UV4. The latter cell line is deficient in aspects of the excision repair pathway for removing DNA adducts, and is hypersensitive to DNA-alkylating agents, especially interstrand crosslinking agents. Previous work has shown that the ratio of IC50 s determined in the wild-type AA8 and mutant UV4 lines (the hypersensitivity factor HF) is a determinant of the mode of cell killing by alkylating agents (Palmer, B. D. et al, J. Med. Chem., 1990 33 112-121; Wilson, W. R. et al, J. Med. Chem., 1989 32 31-38). Compounds with HFs of ca. 1 are unlikely to kill cells via DNA alkylation events. Compounds which show high HF values are likely to form bulky adducts or cross-links,with the latter being especially likely for compounds showing the highest HF values (>ca. 25) (Wilson et al, op. cit.).
(§2) Cell lines were maintained in exponential growth phase by subculturing in RPMI 1640 (P338) or Alpha MEM (AA8, UV4) containing 10% fetal calf serum, as previously described (Palmer et al, op.cit.; Baguley, B. C. and Wilson, W. R., Eur. J. Cancer Clin. Oncol., 1987 23 607-613). IC50 values were determined using log-phase cultures in 96-well microculture plates, and were calculated as the nominal drug concentration required to reduce the cell density to 50% of control values, using 8 control cultures on each microplate. For P388 cultures, drug was present throughout the growth period (72 h), and final cell densities were determined using a minor modification of the MTT method of Mossman (Mossman, T., J. Immunol. Methods, 1983 65 55-63). For AA8 and UV4 cultures, drug exposure was terminated after 18 h by washing three times with fresh medium. Cultures were then grown for a further 72 h before determining cell density by staining with methylene blue (Finlay, G. J. et al, Anal. Biochem., 1984 139 272-277).

AA8 cells = assay: Growth inhibition in vitro, AA8; assay type: cell-based, Chinese hamster; settings: for IC50: AA8 cells, 18 h exposure, then 72 h growth, methylene blue, read-out: IC50
Experimental: as §1, §2

AA8 and UV4 cells = assay: Hypersensitivity factor (AA8/UV4 IC50 ratio); assay type: cell-based, Chinese hamster; settings: ratio of IC50s AA8/UV4
Experimental: as §1, §2

P338 murine leukaemia = assay type: in vivo, mice; settings: for in vivo antitumour activity: P388, single-dose protocol; for % Increase in lifespan: single i.p. dose 24 h after tumour inoculation, at optimal dose (mg/kg: 1 30; 2 30; 3 13.3; 4 3.9; 5 5.9; 6 8.9)
[2] = test system: Saccharomyces cerevisiae strain D5
S. typhimurium TA98 = assay: Bacterial mutagenicity, plate incorporation assay, TA98; settings: mean ± SD
S. typhimurium TA100 = assay: Bacterial mutagenicity, plate incorporation assay, TA100; settings: for reversion colonies, TA100: mean ± SD; for mutagenicity in TA100: statistical analysis
S. typhimurium TA102 = assay: Bacterial mutagenicity, plate incorporation assay, TA102; settings: mean ± SD
calf thymus DNA [3] = assay: Reversible DNA binding by spectrophotometric Scatchard analysis; settings: 20° C., 0.01M HEPES buffer, pH 7.00
L1210 leukemia = settings: repeated dose schedule; cited from earlier work
DNA minor groove = settings: background; cited from earlier work
solid tumour lines = settings: other studies; cited from earlier work
[4] = 80 μg/plate, square brackets: toxicity becoming apparent
[5] = 120 μg/plate, square brackets: toxicity becoming apparent
[6] = 40 μg/plate, square brackets: toxicity becoming apparent

| Structure (SMILES) | Cross-linking (linearized pSV2gpt DNA) | Rate constant for alkylation (calf thymus DNA [1]) | IC50 (P388 cells) [µM] | IC50 (AA8 cells) [µM] | Hypersensitivity factor (AA8 and UV4 cells) | in vivo antitumour activity (P338 murine leukaemia) | reversion colonies, TA98 (S. typhimurium TA98; 4 μg/plate) | reversion colonies, TA98 (S. typhimurium TA98; 10 μg/plate) | reversion colonies, TA98 (S. typhimurium TA98; 20 μg/plate) | reversion colonies, TA98 (S. typhimurium TA98; 40 μg/plate) | reversion colonies, TA98 (S. typhimurium TA98; [4]) | reversion colonies, TA100 (S. typhimurium TA100; 4 μg/plate) | reversion colonies, TA100 (S. typhimurium TA100; 10 μg/plate) | reversion colonies, TA100 (S. typhimurium TA100; 20 μg/plate) | reversion colonies, TA100 (S. typhimurium TA100; 40 μg/plate) | reversion colonies, TA100 (S. typhimurium TA100; 80 μg/plate) | reversion colonies, TA102 (S. typhimurium TA102; 4 μg/plate) | reversion colonies, TA102 (S. typhimurium TA102; 10 μg/plate) | reversion colonies, TA102 (S. typhimurium TA102; 20 μg/plate) | Site size (Number of nucleotide residues) (calf thymus DNA [3]) [nucleotide residues] | also measured |
| --- | --- | --- | --- | --- | --- | --- | --- | --- | --- | --- | --- | --- | --- | --- | --- | --- | --- | --- | --- | --- | --- |
| CN1CCN(c2ccc3nc(-c4ccc5nc(-c6ccc(N(CCCl)CCCl)cc6)[nH]c5c4)[nH]c3c2)CC1 [Compound 2, 2-[2-[4-(N,N-bis(2-chloroethyl)amino)phenyl]-5-benzimidazolyl]-5-(1-methyl-4-piperazinyl)benzimidazole] | No | 1.78 × 10^4 | 0.8 | 1.68 | 24 | highest activity | 61 ± 3 | 68 ± 2 | 58 ± 1 | 52 ± 7 | 55 ± 2 | 173 ± 7 | 175 ± 17 | 167 ± 28 | 210 ± 20 | 192 ± 1 | 408 ± 31 | 371 ± 14 | 280 ± 14 | 2.6 | Optimal dose (P338 murine leukaemia; single i.p. dose): 30 mg/kg; % Increase in lifespan (P338 murine leukaemia): 106%; average number of animals in a group of six which were long-term survivors (P338 murine leukaemia; single i.p. dose, optimal dose, group of six): 2 animals; petite (mitochondrial) mutagenesis [2]: inactive; bacterial mutagenicity (S. typhimurium strains): inactive as a bacterial mutagen |
| CN1CCN(c2ccc3nc(-c4ccc5nc(CCCc6ccc(N(CCCl)CCCl)cc6)[nH]c5c4)[nH]c3c2)CC1 [Compound 5, 2-[2-[3-[4-(N,N-bis(2-chloroethyl)amino)phenyl]propyl]-5-benzimidazolyl]-5-(1-methyl-4-piperazinyl)benzimidazole] | No | 6.52 × 10^4 | 0.02 | 1.32 | 46 | inactive in vivo at all doses up to the maximum tolerable dose | 63 ± 2 | 62 ± 1 | 71 ± 13 | 62 ± 3 | 63 ± 9 | 188 ± 15 | 180 ± 5 | 205 ± 14 | 240 ± 7 | 258 ± 21 | 342 ± 32 | 392 ± 31 | 368 ± 32 | 3.0 | Optimal dose (P338 murine leukaemia; single i.p. dose): 5.9 mg/kg; % Increase in lifespan (P338 murine leukaemia): not active; aberrant colonies in yeast ([2]; yeast strain D5, in words): some aberrant colonies; mitotic crossing-over ([2]; yeast strain D5, in words): weak mitotic crossing-over; reversion colonies, TA98 (S. typhimurium TA98; [5]): 71 ± 1; mutagenicity in TA100 (S. typhimurium TA100): could be considered to show a mutagenic effect in TA100; also recorded: mutagenic ability; reversion colonies, TA102 (S. typhimurium TA102; [6]): 327 ± 17; reversion colonies, TA102 (S. typhimurium TA102; [4]): 480 ± 17; reversion colonies, TA102 (S. typhimurium TA102; [5]): 607 ± 28 |
| CN1CCN(c2ccc3nc(-c4ccc5nc(CCCCCCc6ccc(N(CCCl)CCCl)cc6)[nH]c5c4)[nH]c3c2)CC1 [Compound 6, 2-[2-[6-[4-(N,N-bis(2-chloroethyl)amino)phenyl]hexyl]-5-benzimidazolyl]-5-(1-methyl-4-piperazinyl)benzimidazole] | Yes and crosslinked DNA | 9.64 × 10^4 | 0.06 | 0.4 | 20 | – | 65 ± 10 | 69 ± 7 | 68 ± 8 | 69 ± 9 | 96 ± 5 | 160 ± 13 | 136 ± 0 | 156 ± 29 | 144 ± 10 | 142 ± 10 | 271 ± 31 | 386 ± 10 | 342 ± 14 | 2.4 | Optimal dose (P338 murine leukaemia; single i.p. dose): 8.9 mg/kg; % Increase in lifespan (P338 murine leukaemia): 23%; petite (mitochondrial) mutagenesis ([2]; yeast strain D5, in words): showed activity, albeit weak; bacterial mutagenicity (S. typhimurium strains; overall): lower bacterial mutagenicity; reversion colonies, TA98 (S. typhimurium TA98; [5]): 75 ± 3; reversion colonies, TA100 (S. typhimurium TA100; [5]): 157 ± 14; reversion colonies, TA102 (S. typhimurium TA102; [6]): 372 ± 19; reversion colonies, TA102 (S. typhimurium TA102; [4]): 336 ± 19; reversion colonies, TA102 (S. typhimurium TA102; [5]): 353 ± 34 |
| CN1CCN(c2ccc3nc(-c4ccc5nc(-c6ccc(O)cc6)[nH]c5c4)[nH]c3c2)CC1 [Pibenzimol, reference compound] | – | – | – | – | about unity | not active against P388 using the single-dose protocol | 59 ± 3 | 64 ± 8 | 55 ± 6 | 61 ± 5 | 62 ± 9 | 188 ± 11 | 191 ± 7 | 179 ± 6 | 168 ± 13 | 178 ± 11 | 275 ± 12 | 277 ± 1 | 301 ± 3 | 2.4 | IC50 (P388 cells; Mus musculus): ~1 µM; activity against the AA8 cell line (AA8 cells; compared with P388, shorter exposure time): much less active; petite (mitochondrial) mutagenesis [2]: not active in this system; in vivo activity against L1210 leukemia (L1210 leukemia): moderate in vivo activity; binding to DNA minor groove (DNA minor groove): binds to regions of the minor groove rich in adenine and thymine bases; cytotoxicity in solid tumour lines (solid tumour lines): very low cytotoxicity; mutagenicity in TA100 (S. typhimurium TA100): no statistically significant mutagenic response in TA100; reversion colonies, TA102 (S. typhimurium TA102; [6]): 377 ± 49; reversion colonies, TA102 (S. typhimurium TA102; [4]): 397 ± 10 |
